Test results as given in patent US20230321063A1, “COMPOSITIONS AND METHODS TO REDUCE NEUROINFLAMMATION” (Seattle Children's Hospital d/b/a Seattle Children's …, priority 2020, published 2023).
Entries after “also recorded” stand apart in the source; their conditions may differ.

Key:
[1] = tested on: Ndufs4(KO) mice; experiment: Body weight, growth and cachexia onset; type: in vivo, mouse
Description: (§1) Ndufs4(+/−) mice were bred to produce Ndufs4(KO) (Ndufs4(−/−)) offspring. Mice were weaned at 20-21 days of age. Ndufs4(KO) animals were housed with a minimum of one control littermate for warmth and stimulation. Mice were weighed, and health assessed, a minimum of 3 times per week, every other day (daily for IP injected mice, see herein). Where longitudinal blood point-of-care data was collected, this was performed during these health checks. Wetted chow in a dish on the bottom of each cage, and in-cage water bottles, were provided to all cages housing Ndufs4(KO) mice following the onset of disease so that the ability to find or reach food or water was not a limiting factor for survival.
Cachexia in FIG. 4H and FIG. 6E is the day of life when weight peaks prior to the progressive weight loss which occurs in untreated Ndufs4(KO) animals.

[2] = tested on: Ndufs4(KO) mouse model of LS; experiment: Survival studies and overall disease course in Ndufs4(KO) mice; type: in vivo; details: for impact on disease (overall) / disease or survival: Ndufs4(KO) mice; for survival: Ndufs4(KO) mice vs untreated
Description: as §1
Doses of each drug was based on published data for use in animals. […] Blood and tissue concentrations reached biologically relevant levels for each of the tested inhibitors.
Pharmacologic interventions and chow formulation. Standard mouse chow was ground to a power and mixed with drugs at the doses desired (see FIGS. 4A-4L). 300 mL of 1% agar melted in sterile water was added per kilogram of powdered chow and the mixture was pelleted and baked at 37° C. for 3-5 hours to dry. Pellets were then stored at 4° C. for short term (up to 90 days) or −20° C. for long-term (up to 6 months) storage. It was previously shown that this processing had no impact on animal health or survival (Johnson et al. Front Genet. 2015; 6:247). […]
To determine whether the benefits of mTOR inhibition in Ndufs4(KO) model result from disruption of PI3K mediated signaling, animals were treated from weaning (post-natal day 21, P21) with potent, orally available, isoform specific inhibitors of the catalytic subunits of PI3K: BYL719, GSK2636771, CAL-101, and IPI-549, inhibitors of p110α, p110β, p110δ, and p110γ, respectively.

[3] = tested on: Ndufs4(KO) mice; experiment: Longitudinal assessment of neurological disease symptoms (clasping, ataxia, circling); type: in vivo, mouse; details: Ndufs4(KO) mice vs untreated
Description: Longitudinal assessments of neurological disease symptoms. Clasping, ataxia, and circling were assessed by visual scoring, as previously described. As disease progresses in the Ndufs4(KO) mice animals display intermittent/transient improvement of symptoms. […] For observational assessments, lab-wide quality control discussions occurred frequently to ensure consistency between technicians/researchers. Technicians contributed equally to each treatment group to minimize any potential bias between individuals.

[4] = tested on: control and Ndufs4(KO) mice; experiment: Glucose tolerance test (GTT) and glucose induced lactate test; type: in vivo, mouse; details: 2 g/kg glucose IP; pexidartinib 300 mg/kg/d in chow, IPI-549 100 mg/kg/d in chow, rapamycin (ABI-009) 8 mg/kg/d IP
Description: (§2) Point-of-care glucose and lactate testing. Blood glucose and lactate measurements were collected using point-of-care meters (Prodigy Autocode® glucose meter, product #51850-3466188, Prodigy® Diabetes Care, LLC, Charlotte, NC; lactate assay meter, product #40828, Nova Biomedical, Waltham, MA) and the tail-prick method, as previously described (Stokes et al. Elife 2021; 10:e65400).
Glucose tolerance test (GTT) and glucose induced lactate test. Prior to performing the GTT, mice were fasted for 4 hours, from 10 AM-2 PM. The fasting duration was limited to 4 hours given the sensitivity of untreated Ndufs4(KO) animals to hypoglycemia and related sequelae (dysregulation of body temperature, hypoglycemia induced seizure, etc.). For the ABI-009 cohort, mice received their daily ABI-009 treatment at the start of this fasting period. At the end of the 4 hour fast, baseline blood glucose and lactate values were collecting using point-of-care meters and the tail-prick method. Mice were then injected by IP with 2 g/kg dextrose (10 microliters/gram body weight of 200 mg/mL glucose in 1×PBS, 0.2 micron sterile filtered) using an insulin syringe (31-gauge, 6 mm length, 3/10 cc, BD Veo Ultra-Fine needle). Glucose and lactate levels were measured using a minimally invasive tail-prick method at designated timepoints post-injection.

[5] = tested on: Ndufs4(KO) mice; experiment: Rotarod assay; type: in vivo, mouse; details: latency to fall up to 10 min, 6 rpm
Description: Rotarod and rotarod seizures. Rotarod assays were performed using a Med Associates Inc. (Fairfax, VT) ENV-571M single lane rotarod with a black mat installed in the floor of the lane to reduce visibility of the bottom. Assays were performed by placing animals onto an already rotating rod and timing latency to fall, with a steady rotation speed set to 6 rpm (controlled by attached laptop and Med Associates software). The maximum time of each trial was 10 min, with the trial ending at that time if mice were still on the rotarod. For each assay, three trials were performed, with a minimum of 5 min between each assay. The best of the three trials was reported for the rotarod data. As detailed in the text and figure legends, rotarod was performed each 10 days of age from P30; mice in a given age group were the reported age +/−1 day.

[6] = tested on: Ndufs4(KO) mice; experiment: Point-of-care blood glucose by age; type: in vivo, mouse
Description: as §2

[7] = tested on: Ndufs4(KO) mice; details: rapamycin at doses sufficient to attenuate disease; Johnson et al.; cited from earlier work

Row | SMILES | growth and body size ([1]; compared with mTOR inhibition) | impact on disease (overall) / disease or survival [2] | survival [2] | onset of symptoms: forelimb clasping, ataxia, and circling [3] | cachexia [1] | median survival ([2]; Ndufs4(KO) mice treated from weaning (P21) via chow, untreated 60) [days] | blood lactate spike in response to a glucose bolus [4] | performance on rotarod assay [5] | hypoglycemia (blood glucose) [6] | developmental weight gain and maximum body size [7]
1 | Cc1nc(NC(=O)N2CCC[C@H]2C(N)=O)sc1-c1ccnc(C(C)(C)C(F)(F)F)c1 [BYL719, (2S)-1-N-[4-methyl-5-[2-(1,1,1-trifluoro-2-methylpropan-2-yl)pyridin-4-yl]-1,3-thiazol-2-yl]pyrrolidine-1,2-dicarboxamide] | extremely small body size; also recorded: severely impaired growth and size | only modestly impacting disease | extension of survival | statistically significant delay in symptom onset |  |  |  |  |  | 
2 | C[C@H](NC(=O)c1c(N)nn2cccnc12)c1cc2cccc(C#Cc3cnn(C)c3)c2c(=O)n1-c1ccccc1 [IPI-549, 2-amino-N-[(1S)-1-[8-[2-(1-methylpyrazol-4-yl)ethynyl]-1-oxo-2-phenylisoquinolin-3-yl]ethyl]pyrazolo[1,5-a]pyrimidine-3-carboxamide] |  | attenuated disease | markedly extended survival | significantly delayed the onset | prevented | 110 | similarly prevented the lactate sequelae | improved | prevented | 
3 | CO[C@H]1C[C@@H]2CC[C@@H](C)[C@@](O)(O2)C(=O)C(=O)N2CCCC[C@H]2C(=O)O[C@H]([C@H](C)C[C@@H]2CC[C@@H](O)[C@H](OC)C2)CC(=O)[C@H](C)/C=C(\C)[C@@H](O)[C@@H](OC)C(=O)[C@H](C)C[C@H](C)/C=C/C=C/C=C/1C [rapamycin] |  |  |  |  |  |  |  |  |  | significant reductions
